Experimental data from US20240408216A1, “PROTEIN INHIBITOR OR DEGRADING AGENT, PHARMACEUTICAL COMPOSITION CONTAINING SAME AND PHARMACEUTICAL USE” (JING MEDICINE TECHNOLOGY (SHANGHAI) LTD., priority 2021, published 2024).
Where two headings read alike, the source gives them in different places.

Assays:
[1] = system: BaF3 (EGFR Del19/T790M/C797S); test: Cell proliferation IC50 assay (Cell Titer GLO), BaF3 DTC cells; format: cell-based; conditions: Mus musculus, Ba/F3 EGFR-Del19/T790M/C797S, Table 6, 72 h
Procedure: (§1) IC50 of compounds in the present invention was determined by Cell Titer GLO reagent from Promega. The procedures are as follows:
(§2) Tumor cells were cultured in specified medium in an incubator at 37° C. and 5% CO2. The cells were passaged periodically. Cells at the logarithmic growth phase were collected for plating at a density of 2000-4000 cells/well. The next day, the compounds of the present invention were serially diluted and added to the cells, with DMSO being the negative control and the culture media without cells being the blank control. The plate was incubated in the incubator for 72 h. The cell viability assay was performed by adding the detection reagents to the cell culture media according to Cell Titer GLO reagent instructions and detecting luminescent signals on an EnVision microplate reader (PerkinElmer).
(§3) Inhibition of cell growth by the compounds of the present invention was plotted by Prism Graphpad software for statistically calculating the IC50 of the compound of the present invention.

[2] = system: BaF3 (EGFR L858R/T790M/C797S); test: Cell proliferation IC50 assay (Cell Titer GLO), BaF3 LTC cells; format: cell-based; conditions: Mus musculus, Ba/F3 EGFR, Table 6, 72 h
Procedure: as §1, §2, §3

BaF3 (EGFR WT) = test: Cell proliferation IC50 assay (Cell Titer GLO), BaF3 WT cells; format: cell-based; conditions: Mus musculus, Ba/F3 EGFR, Table 6, 10 ng/ml EGF, 72 h
Procedure: as §1, §2, §3

A431 = test: Cell proliferation IC50 assay (Cell Titer GLO), A431 cells; format: cell-based; conditions: Homo sapiens
Procedure: as §1, §2, §3

BaF3 (EGFR Del19/C797S) = target: T1, BaF3 (EGFR Del19/C797S) (Homo sapiens, UniProt P00533, C797S, cells depend on it, form not given); test: Cell proliferation IC50 assay (Cell Titer GLO), BaF3 DC cells; format: cell-based, mouse; conditions: Table 6, 72 h
T1 construct: BaF3 (EGFR Del19/C797S)|DC|RPMI1640 + 10% FBS
Procedure: as §1, §2, §3

[3] = A-431, Table 6, A431, 72 h, read-out: A431 IC50
[4] = A-431, 72 h, read-out: A431 IC50 (nM)

T1 sequence (P00533 with tags, fused parts or gaps DEL746-750/C797S, form open): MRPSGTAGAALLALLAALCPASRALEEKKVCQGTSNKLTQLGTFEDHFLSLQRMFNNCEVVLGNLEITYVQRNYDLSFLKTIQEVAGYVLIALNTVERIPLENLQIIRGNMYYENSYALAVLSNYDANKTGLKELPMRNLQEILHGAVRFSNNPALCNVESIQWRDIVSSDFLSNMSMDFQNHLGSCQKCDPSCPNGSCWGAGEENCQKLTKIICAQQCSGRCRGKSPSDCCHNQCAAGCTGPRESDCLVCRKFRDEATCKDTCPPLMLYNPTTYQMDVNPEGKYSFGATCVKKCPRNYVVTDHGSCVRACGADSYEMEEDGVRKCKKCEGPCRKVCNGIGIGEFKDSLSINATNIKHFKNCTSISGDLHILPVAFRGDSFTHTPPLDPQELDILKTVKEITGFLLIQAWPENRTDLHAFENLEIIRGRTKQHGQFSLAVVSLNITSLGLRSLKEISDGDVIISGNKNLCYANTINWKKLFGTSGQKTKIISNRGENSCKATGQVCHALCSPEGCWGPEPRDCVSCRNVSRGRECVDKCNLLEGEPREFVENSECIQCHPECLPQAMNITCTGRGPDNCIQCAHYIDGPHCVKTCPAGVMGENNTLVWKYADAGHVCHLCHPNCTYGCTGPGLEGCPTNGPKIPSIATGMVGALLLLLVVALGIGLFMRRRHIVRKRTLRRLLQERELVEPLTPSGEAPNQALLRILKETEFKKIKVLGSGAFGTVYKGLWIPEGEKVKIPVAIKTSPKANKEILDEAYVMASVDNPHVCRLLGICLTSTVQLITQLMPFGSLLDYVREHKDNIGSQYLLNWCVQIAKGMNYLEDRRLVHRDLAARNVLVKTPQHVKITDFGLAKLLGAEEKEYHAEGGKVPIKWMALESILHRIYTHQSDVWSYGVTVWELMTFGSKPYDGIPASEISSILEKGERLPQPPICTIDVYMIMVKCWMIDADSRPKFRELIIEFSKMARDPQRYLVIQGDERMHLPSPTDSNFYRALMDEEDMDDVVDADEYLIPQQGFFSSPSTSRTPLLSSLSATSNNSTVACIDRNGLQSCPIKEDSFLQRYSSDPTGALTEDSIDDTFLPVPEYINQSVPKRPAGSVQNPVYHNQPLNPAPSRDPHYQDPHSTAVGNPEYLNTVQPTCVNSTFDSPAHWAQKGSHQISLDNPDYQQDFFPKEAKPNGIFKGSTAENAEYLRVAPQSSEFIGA

| SMILES | IC50 [1] | IC50 [2] | IC50 (BaF3 (EGFR WT)) | IC50 (A431; [3]) | IC50 (BaF3 (EGFR Del19/C797S)) | IC50 (A431; [4]) |
| --- | --- | --- | --- | --- | --- | --- |
| CCc1cc(Nc2ncc(Cl)c(Nc3ccccc3P(C)(C)=O)n2)c(OC)cc1N1CCC(N2CCN(C(=O)COc3cccc4c3CN(C3CCC(=O)NC3=O)C4=O)CC2)CC1 (centres unmarked) [Example E82] | 17 nM | 162 nM | 781 nM | 1780 nM |  |  |
| COc1cc2c(cc1Nc1ncc(Cl)c(Nc3ccccc3P(C)(C)=O)n1)CCN(C1CCN(CCCCOc3cccc4c3CN(C3CCC(=O)NC3=O)C4=O)CC1)C2 (centres unmarked) [Example E86] | 40.7 nM | 197 nM | 212 nM | 1670 nM | 33 nM |  |
| CCc1cc(Nc2ncc(Cl)c(Nc3ccccc3P(C)(C)=O)n2)c(OC)cc1N1CCC(N2CCN(CCCCOc3cccc4c3CN(C3CCC(=O)NC3=O)C4=O)C(=O)C2)CC1 (centres unmarked) [Example E87] | 11.5 nM | 51.8 nM | > 4000 nM | 3800 nM | 5.3 nM |  |
| CCc1cc(Nc2ncc(Cl)c(Nc3ccccc3P(C)(C)=O)n2)c(OC)cc1N1CCC2(CCN(CCCCOc3ccc(NC4CCC(=O)NC4=O)cc3)CC2)CC1 (centres unmarked) [Example E89] | 89.5 nM | 1040 nM | 1150 nM | 3650 nM | 79.9 nM |  |
| COc1cc(N2CCC(N3CCN(CCC#Cc4cccc5c4CN(C4CCC(=O)NC4=O)C5=O)CC3)CC2)c(CO)cc1Nc1ncc(Cl)c(Nc2ccccc2P(C)(C)=O)n1 (centres unmarked) [Example E91] | 18.5 nM | 115 nM | 305 nM | 1430 nM | 5.2 nM |  |
| CCc1cc(Nc2ncc(Cl)c(Nc3ccccc3P(C)(C)=O)n2)cc(OC)c1N1CCC(N2CCN(CCC#Cc3cccc4c3CN(C3CCC(=O)NC3=O)C4=O)CC2)CC1 (centres unmarked) [Example E93] | 9.74 nM | 68.6 nM | 75.4 nM | 827 nM | 15 nM |  |
| CCc1cc(Nc2ncc(Cl)c(Nc3ccccc3P(C)(C)=O)n2)c(OC)cc1N1CCC(N2CCN(CCCC#Cc3ccc4c(N5CCC(=O)NC5=O)nn(C)c4c3)CC2)CC1 [Example E97] | 45.6 nM | 173 nM | 1060 nM | 1070 nM | 20.6 nM |  |
| COc1cc(C2CCN(C3CCN(CCCCOc4cccc5c4CN(C4CCC(=O)NC4=O)C5=O)CC3)CC2)c(OC)cc1Nc1ncc(Cl)c(Nc2ccccc2P(C)(C)=O)n1 (centres unmarked) [Example E98] | 15.5 nM | 45.2 nM | 566 nM | 1170 nM | 5 nM |  |
| COc1cc(N2CCC(N3CCN(CCCCOc4cccc5c4CN(C4CCC(=O)NC4=O)C5=O)CC3)CC2)c(C#N)cc1Nc1ncc(Cl)c(Nc2ccccc2P(C)(C)=O)n1 (centres unmarked) [Example E103] | 5.54 nM | 21.8 nM | 639 nM | 1010 nM | 4.6 nM |  |
| CCc1cc(Nc2ncc(-c3cnn(C)c3)c(Nc3ccccc3P(C)(C)=O)n2)c(OC)cc1N1CCC(N2CCN(Cc3ccc4c(c3)CN(C3CCC(=O)NC3=O)C4=O)CC2)CC1 (centres unmarked) [Example E217] |  | > 4000 nM | 623 nM | > 4000 nM | 0.9 nM |  |
| CCc1cc(Nc2ncc(-n3cnc(C)n3)c(Nc3ccccc3P(C)(C)=O)n2)c(OC)cc1N1CCC(N2CCN(CCOc3ccc4c(c3)CN(C3CCC(=O)NC3=O)C4=O)CC2)CC1 (centres unmarked) [Example E218] |  | > 4000 nM | 2090 nM | > 4000 nM | 1 nM |  |
| CCc1cc(Nc2ncc(-n3ccnn3)c(Nc3ccccc3P(C)(C)=O)n2)c(OC)cc1N1CCC(N2CCN(CCOc3ccc4c(c3)CN(C3CCC(=O)NC3=O)C4=O)CC2)CC1 (centres unmarked) [Example E220] |  | > 4000 nM | > 4000 nM | > 4000 nM | 4 nM |  |
| CCc1cc(Nc2ncc(-c3cnn(C)c3)c(Nc3ccccc3P(C)(C)=O)n2)c(OC)cc1N1CCC(N2CCN([C@H]3C[C@H](Oc4cc(F)cc5c4CN(C4CCC(=O)NC4=O)C5=O)C3)CC2)CC1 (some centres unmarked) [Example E222] |  | 89.7 nM | 133 nM | > 4000 nM | < 0.24 nM |  |
| CCc1cc(Nc2ncc(Cl)c(Nc3ccccc3P(C)(C)=O)n2)c(OC)cc1N1CCC(N2CCN(CCN(C)c3ccc4c(c3)CN(C3CCC(=O)NC3=O)C4=O)CC2)CC1 (centres unmarked) [Example E223] |  | 69.4 nM | > 4000 nM |  | 11.5 nM | > 4000 nM |
| CCc1cc(Nc2ncc(-c3cnn(C)c3)c(Nc3ccccc3P(C)(C)=O)n2)c(OC)cc1N1CCC(N2CCN(CCN(C)c3ccc4c(c3)CN(C3CCC(=O)NC3=O)C4=O)CC2)CC1 (centres unmarked) [Example E224] |  | > 4000 nM | 654 nM |  | 0.9 nM | > 4000 nM |
